Counter-ions that a name gives are not always drawn.
Biological target: T1, FLJ13397 clone-derived protein (CARP) (Homo sapiens, UniProt Q9H8M7)
T1 construct: A human full-length cDNA clone was expressed as a protein with an N-terminal His tag; His tag (pDEST17 Gateway vector) (N); made in house; host or cells: Escherichia coli BL21star(DE3)pLysS
T1 sequence (Q9H8M7 1-445): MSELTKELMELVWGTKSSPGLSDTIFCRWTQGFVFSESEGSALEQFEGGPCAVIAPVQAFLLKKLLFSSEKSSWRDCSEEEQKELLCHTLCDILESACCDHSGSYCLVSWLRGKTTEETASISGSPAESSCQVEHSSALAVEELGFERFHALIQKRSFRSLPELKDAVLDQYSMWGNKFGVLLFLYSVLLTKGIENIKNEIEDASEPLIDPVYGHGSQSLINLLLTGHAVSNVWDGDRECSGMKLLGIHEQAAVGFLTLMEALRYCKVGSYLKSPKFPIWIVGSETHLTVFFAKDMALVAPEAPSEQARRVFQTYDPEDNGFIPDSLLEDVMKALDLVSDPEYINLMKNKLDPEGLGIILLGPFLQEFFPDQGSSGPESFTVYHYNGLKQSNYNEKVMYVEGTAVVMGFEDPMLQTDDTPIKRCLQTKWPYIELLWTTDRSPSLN
Assay: SEC/MS (size exclusion chromatography / mass analysis) interaction analysis between FLJ13397 clone-derived protein and compounds
Assay type: binding
Experimental: BP-reaction was performed on human full-length cDNA clone and the cloning vector Gateway pDONR201 by the PCR cloning method using the Invitrogen Gateway system to yield an entry clone. LR-reaction was performed on this entry clone with the destination vector pDEST17 (Gateway System) and LR Clonase at 25° C. for 60 minutes to yield an expression plasmid. Escherichia coli competent cell BL21star(DE3)pLysS were transformed with this expression plasmid, a clone incorporating the expression vector was selected, and a frozen stock was prepared. The transformant was inoculated into LB medium and precultured, after which it was transferred into SB medium and cultured to induce the expression by IPTG, and the cells were stored frozen.
A human full-length cDNA clone was expressed as a protein with an N-terminal His tag. This clone was purified using BioRobot 8000 (Qiagen) or ACTA Crystal (Amersham). […] In the purification with ACTA Crystal, affinity purification using a HisTrap HP column was followed by gel filtration purification using the Gel Filtration Column HiLoad 16/60 or a 10/30 Superdex 75 prep grade column. The purified fraction was used for interaction analysis after being subjected to SDS-PAGE to verify the estimated molecular weight and purity.
To analyze the interactions between commonly used drugs and proteins expressed from human full-length cDNA clones while keeping both the proteins and the compounds in non-modified, non-immobilized state, size exclusion chromatography (SEC) and mass analysis were used in combination (FIGS. 1 and 2). The specific procedures are shown below.
The compound-protein mixture prepared in step 1 was subjected to chromatography using an SEC column, the compound and the protein were separated by SEC, and the bound compound or compound that interacted with the protein in the protein fraction was analyzed using a mass analyzer.
Protein concentrations were measured using BCA Protein Assay (PIERCE), in consideration of the purity calculated by SDS-PAGE.
Mass analysis was performed using LCQ DECA XP (Thermoelectron) or Q-TOFmicro (Micromass), equipped with an ESI probe. The LC pump used was Agilent 1100 (Yokogawa Analytical Systems), and the autosampler used was HTC-PAL (CTC Analytics) equipped with a cooling stacker.
In the SEC method using a 384-well spin column, Unifilter 100 (Whatman), packed with 10 μL (dry volume) of Bio-Gel P6 (BIO-RAD) and swollen with milliQ water, was used as the SEC column. […] The SEC spin column was mounted on an acetonitrile-aliquoted 384-well U-bottom plate and centrifuged; the SEC spin column filtrate, which is a protein fraction, was retrieved in 50% acetonitrile. The protein precipitate produced by the acetonitrile was removed via centrifugation and filtration for protein removal; the resulting filtrate was concentrated by centrifugation and re-dissolved in 10 μL of 50% methanol to obtain a mass analysis sample. The mobile phase supplied to the mass analyzer was 0.1% formic acid/50% methanol solution in the positive ion mode, and 0.1% ammonia/50% methanol solution in the negative ion mode; these mobile phases were used at a flow rate of 40 μL/min. 2-μL of mass analysis samples were injected using an autosampler at 2-Minute intervals; the mass spectral intensity of the compound was measured to obtain the spectral intensity of the pharmaceutical compound contained in the SEC spin column filtrate (protein fraction eluted from SEC).

[1] = compound 1 μM, protein 0 μM (protein-free reference)
[2] = compound 1 μM, protein 23.75 μM
[3] = compound 10 μM, protein 0 μM (protein-free reference)
[4] = compound 10 μM, protein 23.75 μM
[5] = compound 10 μM, protein 47.5 μM
[6] = compound 100 μM, protein 0 μM (protein-free reference)
[7] = compound 100 μM, protein 23.75 μM
[8] = compound 100 μM, protein 47.5 μM
[9] = compound 250 μM, protein 0 μM (protein-free reference)
[10] = compound 250 μM, protein 23.75 μM
[11] = compound 250 μM, protein 47.5 μM

SMILES | spectrum intensity of the extracted mass range (compound in SEC spin column filtrate) [1] | spectrum intensity of the extracted mass range (compound in SEC spin column filtrate) [2] | spectrum intensity of the extracted mass range (compound in SEC spin column filtrate) (compound 1 μM, protein 47.5 μM) | spectrum intensity of the extracted mass range (compound in SEC spin column filtrate) [3] | spectrum intensity of the extracted mass range (compound in SEC spin column filtrate) [4] | spectrum intensity of the extracted mass range (compound in SEC spin column filtrate) [5] | spectrum intensity of the extracted mass range (compound in SEC spin column filtrate) [6] | spectrum intensity of the extracted mass range (compound in SEC spin column filtrate) [7] | spectrum intensity of the extracted mass range (compound in SEC spin column filtrate) [8] | spectrum intensity of the extracted mass range (compound in SEC spin column filtrate) [9] | spectrum intensity of the extracted mass range (compound in SEC spin column filtrate) [10] | spectrum intensity of the extracted mass range (compound in SEC spin column filtrate) [11]
COC(=O)Nc1nc2ccccc2[nH]1 [Carbendazim] | 20852664 | 16443963 | 24660680 | 22203544 | 21673683 | 32996198 | 20562919 | 35342827 | 65044479 | 34177767 | 129995989 | 148437211
Oc1ccc(CCN2CCC(Nc3nc4ccccc4n3Cc3ccc(F)cc3)CC2)cc1 [Desmethyl-astemizole] | 12076364 | 10091649 | 10876345 | 6489161 | 12628724 | 26276867 | 85510154 | 141884756 | 225675004 | 135192715 | 339921213 | 728918987
COC(=O)Nc1nc2ccc(S(=O)(=O)c3ccccc3)cc2[nH]1 [Fenbendazole Sulfone] | 4524987 | 2681468 | 2967134 | 9471873 | 13569838 | 12568548 | 4055561 | 63176239 | 88590858 | 5180253 | 165761033 | 286102392
OCCOCCN1CCN(C(c2ccccc2)c2ccc(Cl)cc2)CC1 (stereo not drawn) [Hydroxyzine] | 112855827 | 126033923 | 89527484 | 134387910 | 108540593 | 115214088 | 300477422 | 567712336 | 554713461 | 922692583 | 919366054 | 1073610880
CC[C@@H](C(=O)[C@@H](C)[C@@H](O)[C@H](C)CCc1ccc(C)c(O)c1C(=O)O)[C@H]1O[C@](CC)([C@H]2CC[C@](O)(CC)[C@H](C)O2)C[C@@H]1C [Lasalocid sodium salt] | 9674294 | 11601595 | 10467838 | 13154726 | 20062681 | 46504126 | 945932706 | 2538387120 | 3226817361 | 2174989976 | 9287976762 | 9802098210
COC(=O)Nc1nc2ccc(C(=O)c3ccccc3)cc2[nH]1 [Mebendazole] | 495347 | 480780 | 495499 | 525296 | 777305 | 725295 | 482901 | 15054045 | 9517765 | 444136 | 32097734 | 43484997
COC(=O)Nc1nc2ccc(C(=O)c3cccs3)cc2[nH]1 [Nocodazole] | 8235638 | 5202611 | 3977550 | 4879694 | 6159010 | 9316181 | 6162151 | 33749400 | 37180973 | 9512433 | 131043824 | 227971112
COC(=O)Nc1nc2ccc([S+]([O-])c3ccccc3)cc2[nH]1 (stereo not drawn) [Oxfendazole] | 23723676 | 29471243 | 35025210 | 28662280 | 41004899 | 42911925 | 106348780 | 160312456 | 180803127 | 128622627 | 264420112 | 506800735

Source: US8153385B2, “Target protein and target gene in drug designing and screening method” (Reverse Proteomics Research Institute Co., Ltd., priority 2004, dated 2012)
